Source: patent US9296723B2, “NAMPT inhibitors” (AbbVie Inc., priority 2012, dated 2016)
pIC50: −log10 of the molar value.

Target: NAMPT (Homo sapiens, UniProt P43490)
Assay: Time-Resolved Fluorescence Resonance Energy Transfer (TR-FRET) Binding Assay of NAMPT
Details: 6.8 nM NAMPT, 200 nM probe, equilibrated 3 hours, no substrates
Procedure: Determination of the utility of compounds having Formula (I) as binders to and inhibitors of NAMPT was performed using Time-Resolved Fluorescence Resonance Energy Transfer (TR-FRET) binding assays.
Time-Resolved Fluorescence Resonance Energy Transfer (TR-FRET) Binding Assay of NAMPT
Six L were transferred to 384-well low-volume plates ([…] #3673). To this, 12 L of a 1.5× solution containing enzyme, probe and antibody were added. […] Reactions were equilibrated at room temperature for 3 hours prior to reading on an Envision multi-label plate reader (Perkin Elmer; Ex=337 nm, Em=520 and 495 nm). Time-resolved FRET ratios (Em520/Em495) were normalized to controls, plotted as a function of compound concentration and fit with the four-parameter logistic equation to determine IC50s.

Chain of NAMPT (P43490 whole entry): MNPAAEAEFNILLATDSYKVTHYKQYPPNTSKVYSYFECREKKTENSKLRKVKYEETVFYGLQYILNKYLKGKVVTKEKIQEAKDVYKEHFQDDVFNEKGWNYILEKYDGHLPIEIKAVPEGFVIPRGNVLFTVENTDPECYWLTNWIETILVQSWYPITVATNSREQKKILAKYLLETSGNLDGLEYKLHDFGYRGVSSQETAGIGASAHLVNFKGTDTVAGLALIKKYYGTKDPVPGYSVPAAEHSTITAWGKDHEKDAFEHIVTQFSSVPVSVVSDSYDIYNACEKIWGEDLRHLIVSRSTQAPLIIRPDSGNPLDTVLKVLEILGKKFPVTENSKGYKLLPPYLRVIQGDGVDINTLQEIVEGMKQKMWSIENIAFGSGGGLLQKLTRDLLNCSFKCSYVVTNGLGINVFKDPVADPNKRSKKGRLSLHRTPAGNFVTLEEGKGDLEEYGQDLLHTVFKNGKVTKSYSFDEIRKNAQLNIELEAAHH

Row | pIC50 | SMILES
1 | 7.25 | O=C(Nc1ccc(OC2CCN(C(=O)[C@H]3CCCO3)CC2)cc1)N1CC(c2cccnc2)C1 [Example 5, 3-(pyridin-3-yl)-N-[4-({1-[(2R)-tetrahydrofuran-2-ylcarbonyl]piperidin-4-yl}oxy)phenyl]azetidine-1-carboxamide]
2 | 6.08 | O=C(Nc1ccc(C2CN(CC3CCOC3)C2)cc1)N1CC(c2cccnc2)C1 (stereo not drawn) [Example 256, 3-(pyridin-3-yl)-N-{4-[1-(tetrahydrofuran-3-ylmethyl)azetidin-3-yl]phenyl}azetidine-1-carboxamide]

Test system: PC3 cells
Assay: NAMPT Cell Proliferation Assay (Cell Titer Glo)
Type: cell-based
Details: Homo sapiens, PC-3, 120 h, incubated 5 days, cell viability
Procedure: NAMPT Cell Proliferation Assay
PC3 cells were seeded in 96-well black plates (Corning #3904) at 500 cells/well in 90 µl of RPMI media containing 10% heat-inactivated FBS and incubated overnight at 37° C. and 5% CO2 to allow cells to attach to wells. The following day, test compounds were serially diluted in neat DMSO to 1000× final concentrations prior to dilution with RPMI media to 10× and 1% DMSO. Ten L of the 10× compounds were then transferred to wells containing cells to produce a dose response of 10-fold dilutions from […]. Cells were incubated for 5 days at 37° C. and 5% CO2, then cell viability was measured using Cell Titer Glo reagent (Promega #G7571). Percent inhibition values were calculated and fitted to a sigmoidal dose response curves using Assay Explorer software to determine IC50s.

Row | SMILES | pIC50
3 | O=C(Nc1ccc(OC2CCN(C(=O)[C@H]3CCCO3)CC2)cc1)N1CC(c2cccnc2)C1 [Example 5, 3-(pyridin-3-yl)-N-[4-({1-[(2R)-tetrahydrofuran-2-ylcarbonyl]piperidin-4-yl}oxy)phenyl]azetidine-1-carboxamide] | 7.55
4 | O=C(Nc1ccc(C2CCN(C(=O)C3CCOC3)CC2)cc1)N1CC(c2cccnc2)C1 (stereo not drawn) [Example 53, 3-(pyridin-3-yl)-N-{4-[1-(tetrahydrofuran-3-ylcarbonyl)piperidin-4-yl]phenyl}azetidine-1-carboxamide] | 7.86
5 | O=C(Nc1ccc(C2CCN(C(=O)[C@H]3CCOC3)CC2)cc1)N1CC(c2cccnc2)C1 [Example 159, 3-(pyridin-3-yl)-N-(4-{1-[(3S)-tetrahydrofuran-3-ylcarbonyl]piperidin-4-yl}phenyl)azetidine-1-carboxamide] | 7.13
6 | O=C(Nc1ccc(C2CCN(C(=O)[C@H]3CCOC3)CC2)cc1)N1CC(c2cnccc2Cl)C1 [Example 160, 3-(4-chloropyridin-3-yl)-N-(4-{1-[(3S)-tetrahydrofuran-3-ylcarbonyl]piperidin-4-yl}phenyl)azetidine-1-carboxamide] | 6.19
7 | O=C(Nc1ccc(C2CCN(C(=O)c3ccccc3)CC2)cc1)N1CC(c2cccnn2)C1 [Example 336, N-[4-(1-benzoylpiperidin-4-yl)phenyl]-3-(pyridazin-3-yl)azetidine-1-carboxamide] | 6.65
8 | O=C(Nc1ccc(C2CCN(C(=O)c3ccccc3F)CC2)cc1)N1CC(c2cccnn2)C1 [Example 337, N-{4-[1-(2-fluorobenzoyl)piperidin-4-yl]phenyl}-3-(pyridazin-3-yl)azetidine-1-carboxamide] | 7.26
9 | Cc1ccccc1C(=O)N1CCC(c2ccc(NC(=O)N3CC(c4cccnn4)C3)cc2)CC1 [Example 338, N-{4-[1-(2-methylbenzoyl)piperidin-4-yl]phenyl}-3-(pyridazin-3-yl)azetidine-1-carboxamide] | 6.23
10 | CC(C)(C)C(=O)N1CCC(c2ccc(NC(=O)N3CC(c4cccnn4)C3)cc2)CC1 [Example 339, N-{4-[1-(2,2-dimethylpropanoyl)piperidin-4-yl]phenyl}-3-(pyridazin-3-yl)azetidine-1-carboxamide] | 6.18
11 | O=C(Nc1ccc(C2CCN(C(=O)C3CC3)CC2)cc1)N1CC(c2cccnn2)C1 [Example 340, N-{4-[1-(cyclopropylcarbonyl)piperidin-4-yl]phenyl}-3-(pyridazin-3-yl)azetidine-1-carboxamide] | 5.61
12 | CC(=O)N1CCC(c2ccc(NC(=O)N3CC(c4cccnn4)C3)cc2)CC1 [Example 341, N-[4-(1-acetylpiperidin-4-yl)phenyl]-3-(pyridazin-3-yl)azetidine-1-carboxamide] | 5.05
13 | CC(C)(C)CC(=O)N1CCC(c2ccc(NC(=O)N3CC(c4cccnn4)C3)cc2)CC1 [Example 342, N-{4-[1-(3,3-dimethylbutanoyl)piperidin-4-yl]phenyl}-3-(pyridazin-3-yl)azetidine-1-carboxamide] | 6.41
14 | O=C(Nc1ccc(C2CCN(C(=O)C3CCC3)CC2)cc1)N1CC(c2cccnn2)C1 [Example 343, N-{4-[1-(cyclobutylcarbonyl)piperidin-4-yl]phenyl}-3-(pyridazin-3-yl)azetidine-1-carboxamide] | 6.08
15 | O=C(CCC(F)(F)F)N1CCC(c2ccc(NC(=O)N3CC(c4cccnn4)C3)cc2)CC1 [Example 344, 3-(pyridazin-3-yl)-N-{4-[1-(4,4,4-trifluorobutanoyl)piperidin-4-yl]phenyl}azetidine-1-carboxamide] | 5.12
16 | O=C(CC(F)(F)F)N1CCC(c2ccc(NC(=O)N3CC(c4cccnn4)C3)cc2)CC1 [Example 345, 3-(pyridazin-3-yl)-N-{4-[1-(3,3,3-trifluoropropanoyl)piperidin-4-yl]phenyl}azetidine-1-carboxamide] | 5.95
17 | CC1(C(=O)N2CCC(c3ccc(NC(=O)N4CC(c5cccnn5)C4)cc3)CC2)CC1 [Example 346, N-(4-{1-[(1-methylcyclopropyl)carbonyl]piperidin-4-yl}phenyl)-3-(pyridazin-3-yl)azetidine-1-carboxamide] | 6.07
18 | O=C(CC1CC1)N1CCC(c2ccc(NC(=O)N3CC(c4cccnn4)C3)cc2)CC1 [Example 347, N-{4-[1-(cyclopropylacetyl)piperidin-4-yl]phenyl}-3-(pyridazin-3-yl)azetidine-1-carboxamide] | 5.81

Other lines, results leading:

Row | pIC50 | SMILES
19 | 6.10 | O=C(Nc1ccc(CC2CCN(C(=O)c3ccccc3)CC2)cc1)N1CC(c2cccnn2)C1 [Example 348, N-{4-[(1-benzoylpiperidin-4-yl)methyl]phenyl}-3-(pyridazin-3-yl)azetidine-1-carboxamide]
20 | 6.11 | O=C(Nc1ccc(CC2CCN(C(=O)c3ccccc3F)CC2)cc1)N1CC(c2cccnn2)C1 [Example 349, N-(4-{[1-(2-fluorobenzoyl)piperidin-4-yl]methyl}phenyl)-3-(pyridazin-3-yl)azetidine-1-carboxamide]
21 | 6.13 | CC(C)(C)C(=O)N1CCC(Cc2ccc(NC(=O)N3CC(c4cccnn4)C3)cc2)CC1 [Example 350, N-(4-{[1-(2,2-dimethylpropanoyl)piperidin-4-yl]methyl}phenyl)-3-(pyridazin-3-yl)azetidine-1-carboxamide]
22 | 6.18 | CC(C)(C)CC(=O)N1CCC(Cc2ccc(NC(=O)N3CC(c4cccnn4)C3)cc2)CC1 [Example 351, N-(4-{[1-(3,3-dimethylbutanoyl)piperidin-4-yl]methyl}phenyl)-3-(pyridazin-3-yl)azetidine-1-carboxamide]
23 | 6.22 | CCC(CC)C(=O)N1CCC(Cc2ccc(NC(=O)N3CC(c4cccnn4)C3)cc2)CC1 [Example 352, N-(4-{[1-(2-ethylbutanoyl)piperidin-4-yl]methyl}phenyl)-3-(pyridazin-3-yl)azetidine-1-carboxamide]
24 | 6.00 | CC(C)C(=O)N1CCC(Cc2ccc(NC(=O)N3CC(c4cccnn4)C3)cc2)CC1 [Example 354, N-(4-{[1-(2-methylpropanoyl)piperidin-4-yl]methyl}phenyl)-3-(pyridazin-3-yl)azetidine-1-carboxamide]
25 | 5.14 | CC(=O)N1CCC(Cc2ccc(NC(=O)N3CC(c4cccnn4)C3)cc2)CC1 [Example 355, N-{4-[(1-acetylpiperidin-4-yl)methyl]phenyl}-3-(pyridazin-3-yl)azetidine-1-carboxamide]
26 | 6.10 | CC[C@H](C)C(=O)N1CCC(Cc2ccc(NC(=O)N3CC(c4cccnn4)C3)cc2)CC1 [Example 356, N-[4-({1-[(2S)-2-methylbutanoyl]piperidin-4-yl}methyl)phenyl]-3-(pyridazin-3-yl)azetidine-1-carboxamide]
27 | 6.15 | CC1(C(=O)N2CCC(Cc3ccc(NC(=O)N4CC(c5cccnn5)C4)cc3)CC2)CC1 [Example 357, N-[4-({1-[(1-methylcyclopropyl)carbonyl]piperidin-4-yl}methyl)phenyl]-3-(pyridazin-3-yl)azetidine-1-carboxamide]
